± gives the expanded uncertainty stated by the source.

The data set is described as follows: wn = mass fraction of the nth substance listed. Particulars: 373.15 K; 34470 kPa; Liquid; Vibrating tube method; w1 = 0.4623.

In general, mass density refers to mass per unit of volume. `FC(F)(F)C1(F)C(F)(F)C(F)(F)C(F)(F)C(F)(C(F)(F)F)C1(F)F` (stereo unspecified) + C: the mass density is given as 1399 ± 17 kg/m3.

The record behind these values is the NIST ThermoML archive (doi:10.1016/j.fluid.2010.06.017).
